Experimental data taken from patent US11459334B2, “Substituted pyrrolo[2,1-f][1,2,4]triazines as KIT and/or PDGFR-α inhibitors” (SHENZHEN TARGETRX, INC., priority 2018, dated 2022).

Columns and labels:
[1] = Metabolic stability evaluation, human liver microsome experiment; type: in vitro ADME; settings: human liver microsomes, pH 7.4, 1 μM compound, 0.5 mg/mL protein; for microsomal CLint at 1 μM: read-out: CL human liver microsome experiment; for half-life at 1 μM: read-out: T½ human liver microsome experiment
Method: (§1) Microsome experiment: human liver microsome: 0.5 mg/mL, Xenotech; rat liver microsome: 0.5 mg/mL, Xenotech; coenzyme (NADPH/NADH): 1 mM, Sigma Life Science; magnesium chloride: 5 mM, 100 mM phosphate buffer (pH 7.4).
(§2) Preparation of stock solution: a certain amount of the example compound powder and control compound powder were accurately weighed, and respectively dissolved to 5 mM with DMSO.
(§3) Preparation of phosphate buffer (100 mM, pH7.4): 150 mL of 0.5M potassium dihydrogen phosphate and 700 mL of 0.5M dipotassium hydrogen phosphate prepared beforehand were mixed, with pH of the mixture adjusted to 7.4 with 0.5M dipotassium hydrogen phosphate solution. Before use, the mixture was diluted by 5 folds with ultrapure water and magnesium chloride was added to obtain the phosphate buffer (100 mM), which contains 100 mM potassium phosphate, 3.3 mM magnesium chloride, and has pH 7.4.
(§4) NADPH regeneration system solution (containing 6.5 mM NADP, 16.5 mM G-6-P, 3 U/mL G-6-P D, 3.3 mM magnesium chloride) was prepared, and placed on wet ice before use.
(§5) Preparation of stop solution: a solution of 50 ng/mL propranolol hydrochloride and 200 ng/mL tolbutamide (internal standard) in acetonitrile. 25057.5 μL of phosphate buffer (pH 7.4) was taken into a 50 mL centrifuge tube, added with 812.5 μL of human liver microsome, and mixed well to obtain a liver microsome diluent with a protein concentration of 0.625 mg/mL. 25057.5 μL of phosphate buffer (pH 7.4) was taken into a 50 mL centrifuge tube, added with 812.5 μL of SD rat liver microsome, and mixed well to obtain a liver microsome diluent with a protein concentration of 0.625 mg/mL.
(§6) Incubation of the samples: the stock solutions of the corresponding compounds were respectively diluted to 0.25 mM with an aqueous solution containing 70% acetonitrile to obtain working solutions for later use. 398 μL of human liver microsome and rat liver microsome diluents were respectively taken and added to a 96-well incubation plate (N=2), added with 2 μL of 0.25 mM working solution respectively, and mixed well.
(§7) Determination of metabolic stability: 300 μL of pre-cooled stop solution was added to each well of a 96-well deep-well plate, and the plate was placed on ice as a stop plate. The 96-well incubation plate and the NADPH regeneration system were placed in a 37° C. water bath, shaken at 100 rpm, and pre-incubated for 5 minutes. 80 μL of incubation solution was taken out of each well of the incubation plate and added to the stop plate, mixed well, and supplemented with 20 μL of NADPH regeneration system solution to obtain the 0 min sample. Then 80 μL of NADPH regeneration system solution was added to each well of the incubation plate to initiate the reaction and start timing. The reaction concentration of the corresponding compound was 1 μM, and the protein concentration was 0.5 mg/mL. At 10, 30, and 90 minutes of reaction, 100 μL of the reaction solution was taken and added to the stop plate, and vortexed for 3 minutes to stop the reaction. The stop plate was centrifuged at 5000×g for 10 min at 4° C. 100 μL of supernatant was taken to a 96-well plate pre-added with 100 μL of distilled water, mixed well, and subjected to sample analysis by LC-MS/MS.
(§8) Data analysis: the peak areas of the corresponding compound and internal standard were detected through the LC-MS/MS system, and the ratio of the peak area of the compound to the internal standard was calculated.

[2] = Metabolic stability evaluation, rat liver microsome experiment; type: in vitro ADME; settings: SD, rat liver microsomes, pH 7.4, 1 μM compound, 0.5 mg/mL protein; for microsomal CLint at 1 μM: read-out: CL rat liver microsome experiment; for half-life at 1 μM: read-out: T½ rat liver microsome experiment
Method: as §1, §2, §3, §4, §5, §6, §7, §8

Ba/F3 Kit D816V = Ba/F3 Kit D816V (Homo sapiens, UniProt P10721, D816V, cells depend on it); settings: read-out: Cell IC50 (nM) BaF3/Kit(D816V); 72 hours, CTG

## [2H]C1([2H])N(c2ncc([C@@](C)(N)c3ccc(F)cc3)cn2)C([2H])([2H])C([2H])([2H])N(c2ncnn3cc(-c4cnn(C)c4)cc23)C1([2H])[2H] [Compound T-4-S, (S)-1-(4-fluorophenyl)-1-(2-(4-(6-(1-methyl-1H-pyrazol-4-yl)pyrrolo[2,1-f][1,2,4]triazin-4-yl)piperazin-1-yl-2,2,3,3,5,5,6,6-d8)pyrimidin-5-yl)ethylamine]
[1]
  microsomal CLint at 1 μM: 15.3 µL/min/mg
  half-life at 1 μM: 90.5 min
[2]
  microsomal CLint at 1 μM: 17.1 µL/min/mg
  half-life at 1 μM: 81.1 min
Ba/F3 Kit D816V
  GI50: 1 to 50 nM

## [2H]C([2H])([2H])n1cc(-c2cc3c(N4CCN(c5ncc([C@](N)(c6ccc(F)cc6)C([2H])([2H])[2H])cn5)CC4)ncnn3c2)cn1 [Compound T-3-R, (R)-1-(4-fluorophenyl)-1-(2-(4-(6-(1-(methyl-d3)-1H-pyrazol-4-yl)pyrrolo[2,1-f][1,2,4]triazin-4-yl)piperazin-1-yl)pyrimidin-5-yl)ethan-2,2,2-d3-1-amine]
[1]
  microsomal CLint at 1 μM: 27 µL/min/mg
  half-life at 1 μM: 51.3 min
[2]
  microsomal CLint at 1 μM: 37.2 µL/min/mg
  half-life at 1 μM: 37.3 min

## [2H]C([2H])([2H])n1cc(-c2cc3c(N4CCN(c5ncc([C@@](N)(c6ccc(F)cc6)C([2H])([2H])[2H])cn5)CC4)ncnn3c2)cn1 [Compound T-3-S, (S)-1-(4-fluorophenyl)-1-(2-(4-(6-(1-(methyl-d3)-1H-pyrazol-4-yl)pyrrolo[2,1-f][1,2,4]triazin-4-yl)piperazin-1-yl)pyrimidin-5-yl)ethan-2,2,2-d3-1-amine]
[1]
  microsomal CLint at 1 μM: 13 µL/min/mg
  half-life at 1 μM: 107 min
[2]
  microsomal CLint at 1 μM: 15.6 µL/min/mg
  half-life at 1 μM: 89.1 min
Ba/F3 Kit D816V
  GI50: 1 to 50 nM

## Cn1cc(-c2cc3c(N4CCN(c5ncc([C@@](C)(N)c6ccc(F)cc6)cn5)CC4)ncnn3c2)cn1 [Avapritinib, (S)-1-(4-fluorophenyl)-1-(2-(4-(6-(1-methyl-1H-pyrazol-4-yl)pyrrolo[2,1-f][1,2,4]triazin-4-yl)piperazin-1-yl)pyrimidin-5-yl)ethylamine, reference compound]
[1]
  microsomal CLint at 1 μM: 15.8 µL/min/mg
  half-life at 1 μM: 87.6 min
[2]
  microsomal CLint at 1 μM: 24.6 µL/min/mg
  half-life at 1 μM: 56.3 min
Ba/F3 Kit D816V
  GI50: 1 to 50 nM

## [2H]C([2H])([2H])[C@](N)(c1ccc(F)cc1)c1cnc(N2CCN(c3ncnn4cc(-c5cnn(C)c5)cc34)CC2)nc1 [Compound T-2-S, (S)-1-(4-fluorophenyl)-1-(2-(4-(6-(1-methyl-1H-pyrazol-4-yl)pyrrolo[2,1-f][1,2,4]triazin-4-yl)piperazin-1-yl)pyrimidin-5-yl)ethan-2,2,2-d3-1-amine]
Ba/F3 Kit D816V
  GI50: 1 to 50 nM

## [2H]C([2H])([2H])n1cc(-c2cc3c(N4C([2H])([2H])C([2H])([2H])N(c5ncc([C@@](C)(N)c6ccc(F)cc6)cn5)C([2H])([2H])C4([2H])[2H])ncnn3c2)cn1 [Compound T-5-S, (S)-1-(4-fluorophenyl)-1-(2-(4-(6-(1-(methyl-d3)-1H-pyrazol-4-yl)pyrrolo[2,1-f][1,2,4]triazin-4-yl)piperazin-1-yl-2,2,3,3,5,5,6,6-d8)pyrimidin-5-yl)ethylamine]
Ba/F3 Kit D816V
  GI50: 1 to 50 nM

## [2H]C1([2H])N(c2ncc([C@@](N)(c3ccc(F)cc3)C([2H])([2H])[2H])cn2)C([2H])([2H])C([2H])([2H])N(c2ncnn3cc(-c4cnn(C)c4)cc23)C1([2H])[2H] [Compound T-6-S, (S)-1-(4-fluorophenyl)-1-(2-(4-(6-(1-methyl-1H-pyrazol-4-yl)pyrrolo[2,1-f][1,2,4]triazin-4-yl)piperazin-1-yl-2,2,3,3,5,5,6,6-d8)pyrimidin-5-yl)ethan-2,2,2-d3-1-amine]
[1]
  microsomal CLint at 1 μM: 13.1 µL/min/mg
  half-life at 1 μM: 105 min
[2]
  microsomal CLint at 1 μM: 15.5 µL/min/mg
  half-life at 1 μM: 89.4 min
Ba/F3 Kit D816V
  GI50: 1 to 50 nM

## [2H]C1([2H])N(c2ncc([C@](C)(N)c3ccc(F)cc3)cn2)C([2H])([2H])C([2H])([2H])N(c2ncnn3cc(-c4cnn(C)c4)cc23)C1([2H])[2H] [Compound T-4-R, (R)-1-(4-fluorophenyl)-1-(2-(4-(6-(1-methyl-1H-pyrazol-4-yl)pyrrolo[2,1-f][1,2,4]triazin-4-yl)piperazin-1-yl-2,2,3,3,5,5,6,6-d8)pyrimidin-5-yl)ethylamine]
[1]
  microsomal CLint at 1 μM: 26 µL/min/mg
  half-life at 1 μM: 53.3 min
[2]
  microsomal CLint at 1 μM: 27 µL/min/mg
  half-life at 1 μM: 51.4 min

## [2H]C([2H])([2H])n1cc(-c2cc3c(N4CCN(c5ncc([C@@](C)(N)c6ccc(F)cc6)cn5)CC4)ncnn3c2)cn1 [Compound T-1-S, (S)-1-(4-fluorophenyl)-1-(2-(4-(6-(1-(methyl-d3)-1H-pyrazol-4-yl)pyrrolo[2,1-f][1,2,4]triazin-4-yl)piperazin-1-yl)pyrimidin-5-yl)ethylamine]
[1]
  microsomal CLint at 1 μM: 15.6 µL/min/mg
  half-life at 1 μM: 88.6 min
Ba/F3 Kit D816V
  GI50: 1 to 50 nM

## [2H]C1([2H])N(c2ncc([C@](N)(c3ccc(F)cc3)C([2H])([2H])[2H])cn2)C([2H])([2H])C([2H])([2H])N(c2ncnn3cc(-c4cnn(C)c4)cc23)C1([2H])[2H] [Compound T-6-R, (R)-1-(4-fluorophenyl)-1-(2-(4-(6-(1-methyl-1H-pyrazol-4-yl)pyrrolo[2,1-f][1,2,4]triazin-4-yl)piperazin-1-yl-2,2,3,3,5,5,6,6-d8)pyrimidin-5-yl)ethan-2,2,2-d3-1-amine]
[1]
  microsomal CLint at 1 μM: 24.2 µL/min/mg
  half-life at 1 μM: 57.3 min
[2]
  microsomal CLint at 1 μM: 38.6 µL/min/mg
  half-life at 1 μM: 35.9 min

## [2H]C([2H])([2H])n1cc(-c2cc3c(N4C([2H])([2H])C([2H])([2H])N(c5ncc([C@@](N)(c6ccc(F)cc6)C([2H])([2H])[2H])cn5)C([2H])([2H])C4([2H])[2H])ncnn3c2)cn1 [Compound T-7-S, (S)-1-(4-fluorophenyl)-1-(2-(4-(6-(1-(methyl-d3)-1H-pyrazol-4-yl)pyrrolo[2,1-f][1,2,4]triazin-4-yl)piperazin-1-yl-2,2,3,3,5,5,6,6-d8)pyrimidin-5-yl)ethan-2,2,2-d3-1-amine]
Ba/F3 Kit D816V
  GI50: 1 to 50 nM

## Cn1cc(-c2cc3c(N4CCN(c5ncc([C@](C)(N)c6ccc(F)cc6)cn5)CC4)ncnn3c2)cn1 [Compound A, (R)-1-(4-fluorophenyl)-1-(2-(4-(6-(1-methyl-1H-pyrazol-4-yl)pyrrolo[2,1-f][1,2,4]triazin-4-yl)piperazin-1-yl)pyrimidin-5-yl)ethan-1-amine, reference compound]
[1]
  microsomal CLint at 1 μM: 28.8 µL/min/mg
  half-life at 1 μM: 48.1 min
[2]
  microsomal CLint at 1 μM: 41.5 µL/min/mg
  half-life at 1 μM: 33.4 min
